Test results taken from BindingDB's records for doi:10.7270/Q2TX3CTT (Broad Institute, 2010).

Target: Glycogen synthase kinase-3 beta (Homo sapiens, UniProt P49841)
Experiment: concentration-response blocking of human GSK3B – biochemical, luminescence, cell-free homogeneous, retest, dose response (AID 434954)

Chain of Glycogen synthase kinase-3 beta (P49841 whole entry): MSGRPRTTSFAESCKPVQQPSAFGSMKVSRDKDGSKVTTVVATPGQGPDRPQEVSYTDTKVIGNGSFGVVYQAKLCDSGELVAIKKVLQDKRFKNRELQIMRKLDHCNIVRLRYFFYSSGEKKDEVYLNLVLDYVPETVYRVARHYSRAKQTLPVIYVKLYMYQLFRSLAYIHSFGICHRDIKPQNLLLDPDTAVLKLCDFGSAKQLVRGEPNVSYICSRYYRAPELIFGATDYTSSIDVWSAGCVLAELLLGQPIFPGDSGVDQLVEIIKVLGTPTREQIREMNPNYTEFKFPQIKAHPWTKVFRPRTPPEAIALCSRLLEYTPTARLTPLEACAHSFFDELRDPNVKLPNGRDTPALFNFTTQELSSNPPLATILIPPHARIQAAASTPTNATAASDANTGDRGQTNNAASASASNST

Compound | EC50 [µM]
CC1=NC2=C(C(=O)CC(C)(C)C2)C(c2ccc(O)cc2)C1C#N (stereo unspecified) | > 300
C=C(Cl)COc1ccc2c(CCCC)cc(=O)oc2c1 [4-butyl-7-(2-chloranylprop-2-enoxy)chromen-2-one] | > 300
CCCCOc1ccc(/C=C/C(=O)OCC(=O)N2CC(=O)Nc3ccccc32)cc1OCC [[2-oxidanylidene-2-(3-oxidanylidene-2,4-dihydroquinoxalin-1-yl)ethyl] (E)-3-(4-butoxy-3-ethoxy-phenyl)prop-2-enoate] | > 300
CCNc1nc(N)c(C(=O)C23CC4CC(CC(C4)C2)C3)s1 [Adamantan-1-yl-(4-amino-2-ethylamino-thiazol-5-yl)-methanone] | > 300
COc1ccc(-c2nn(-c3ccccc3)cc2C=NNS(=O)(=O)c2ccccc2)cc1 | > 300
CCCC(NC(=O)Cc1c(C)c2c(cc(C)c3c(C)coc32)oc1=O)C(=O)O (stereo unspecified) [2-[[2-(3,4,9-trimethyl-7-oxofuro[2,3-f]chromen-8-yl)acetyl]amino]pentanoic acid] | > 300
CCOC(=O)c1cnc2ccc(Cl)cc2c1N1CCN(C)CC1 [6-chloro-4-(4-methyl-1-piperazinyl)-3-quinolinecarboxylic acid ethyl ester] | 14.8
N#Cc1c(O)nc(SCC(=O)c2cccs2)nc1-c1cccs1 [6-oxo-2-{[2-oxo-2-(2-thienyl)ethyl]sulfanyl}-4-(2-thienyl)-1,6-dihydro-5-pyrimidinecarbonitrile] | > 300
CCCn1nc(NC(=O)C2CCCO2)c2cc3ccc(C)cc3nc21 (stereo unspecified) [N-(7-methyl-1-propyl-pyrazolo[3,4-b]quinolin-3-yl)oxolane-2-carboxamide] | > 300
COc1ccc(Nc2nc3ccccc3s2)cc1 [1,3-benzothiazol-2-yl-(4-methoxyphenyl)amine] | > 300
COc1ccc(Nc2nc(NCCN3CCOCC3)nc(Nc3ccc(OC)cc3)n2)cc1 | > 300
COC(=O)CSc1nnc(-c2ccncc2)o1 [methyl 2-[(5-pyridin-4-yl-1,3,4-oxadiazol-2-yl)sulfanyl]ethanoate] | > 300
COc1cccc(C(=O)CSc2nccn2C)c1 [1-(3-Methoxy-phenyl)-2-(1-methyl-1H-imidazol-2-ylsulfanyl)-ethanone] | > 300
COc1ccc(Nc2nc(N)nc(CSc3nncn3C)n2)cc1 [N-(4-methoxyphenyl)-6-{[(4-methyl-4H-1,2,4-triazol-3-yl)thio]methyl}-1,3,5-triazine-2,4-diamine] | 41.3
COc1ccc2c(CC(=O)Nc3ncc(C)s3)coc2c1 [2-(6-methoxy-1-benzofuran-3-yl)-N-(5-methyl-1,3-thiazol-2-yl)ethanamide] | > 300
COC(=O)c1c(C)oc2ccc(OC(=O)c3cccs3)cc12 [methyl 2-methyl-5-thiophen-2-ylcarbonyloxy-1-benzofuran-3-carboxylate] | > 300
Nc1nc(Nc2ccccc2)nc(NCc2ccco2)c1[N+](=O)[O-] [4-N-(furan-2-ylmethyl)-5-nitro-2-N-phenylpyrimidine-2,4,6-triamine] | 4.89

Compound | EC50 [µM]
Cc1cccc(Nc2nc(N)c([N+](=O)[O-])c(N3CCOCC3)n2)c1 [6-Morpholin-4-yl-5-nitro-N*2*-m-tolyl-pyrimidine-2,4-diamine] | > 300
CCOC(=O)C1C(C(F)(F)F)=Nc2ncnn2C1c1cc(OC)ccc1OC (stereo unspecified) | > 300
CCSc1nc2sc3c(c2c(=O)n1-c1ccccc1)CCN(C)C3 [2-Ethylsulfanyl-7-methyl-3-phenyl-5,6,7,8-tetrahydro-3H-9-thia-1,3,7-triaza-fluoren-4-one] | > 300
Cc1ccc(C(C(=O)NC2CCCCC2)N(CC2CCCO2)C(=O)CNC(=O)c2cccs2)cc1 (stereo unspecified) [N-[2-[[2-(cyclohexylamino)-1-(4-methylphenyl)-2-oxoethyl]-(oxolan-2-ylmethyl)amino]-2-oxoethyl]thiophene-2-carboxamide] | > 300
COc1ccc(-c2c(N)nnc3c2[nH]c2ccccc23)cc1OC | > 300
Cc1nn(-c2ccccn2)c2c1C(c1ccsc1)C1C(=O)CCCC1=N2 (stereo unspecified) [ethanol;3-methyl-1-(2-pyridinyl)-4-(3-thiophenyl)-4,6,7,8-tetrahydro-2H-pyrazolo[3,4-b]quinolin-5-one] | > 300
COc1ccccc1Nc1nc(NCCO)nc(N)c1[N+](=O)[O-] | 87.6
Cc1ccnc(NC(=O)Cn2ccc([N+](=O)[O-])n2)c1 [N-(4-methylpyridin-2-yl)-2-(3-nitropyrazol-1-yl)ethanamide] | > 300
O=C(CCS(=O)(=O)c1ccc(Br)cc1)Nc1ccc(Cl)cc1F [3-(4-bromophenyl)sulfonyl-N-(4-chloranyl-2-fluoranyl-phenyl)propanamide] | > 300
O=C(COc1ccc(Cl)cc1)Nc1ncc([N+](=O)[O-])s1 | 26.3
COc1ccc(Nc2nc(NCc3ccco3)nc(N)c2[N+](=O)[O-])cc1 [2-N-(furan-2-ylmethyl)-4-N-(4-methoxyphenyl)-5-nitropyrimidine-2,4,6-triamine] | > 300
c1ccc2c(CSc3nnc(-c4ccncc4)o3)cccc2c1 [2-(naphthalen-1-ylmethylsulfanyl)-5-pyridin-4-yl-1,3,4-oxadiazole] | 29.1
CCSc1nc(N)nc(-c2cccs2)c1C#N [2-amino-4-ethylsulfanyl-6-thiophen-2-ylpyrimidine-5-carbonitrile] | > 300
Cc1cccc(Nc2nc(N3CCN(C)CC3)nc(N)c2[N+](=O)[O-])c1 [N4-(3-methylphenyl)-2-(4-methylpiperazin-1-yl)-5-nitro-pyrimidine-4,6-diamine] | > 300
Cc1ccc(C(=O)/[O+]=N/[CH-]c2ccc(N3CCCCC3)c([N+](=O)[O-])c2)cc1 [[(3-nitro-4-piperidin-1-ylphenyl)methylideneamino] 4-methylbenzoate] | > 300
Cc1ccc(C(=O)ON=C(N)c2ccccn2)c(C)c1 | 14.9
CC(=O)N(\C=C/C=C/C=C1\Sc2ccccc2C1=O)c1ccccc1 [N-[(1Z,3E,5Z)-5-(3-oxo-1-benzothien-2(3H)-ylidene)penta-1,3-dienyl]-N-phenylacetamide] | > 300

The remaining lines, values ahead:

EC50 [µM] | Compound
> 300 | CC(=O)Nc1cccc(Nc2nc(-c3ccccc3)nc3ccccc23)c1 [SMR000384461]
> 300 | COc1cc(C(=O)Nc2cccc(-c3nc4ncccc4o3)c2C)cc(OC)c1OC [MLS000039714]
> 300 | CCc1nn(CC(=O)NCCCc2ccccc2)c(=O)c2cc3c(OC)cccc3n12 [SMR000624506]
> 300 | CCN1C(=O)[C@H]2[C@@H](c3ccc(-c4ccccc4)cc3)N[C@@](CC(C)C)(C(=O)OC)[C@H]2C1=O [SMR000814381]
> 300 | CC(C)(C)NC(=O)NC(=O)COc1ccc(Br)cc1Br [SMR000254856]
> 300 | CCOC(=O)c1ccc2c(c1)[n+](CC)c(/C=C/N(C)c1ccccc1)n2CC [MLS000561766]
> 300 | CCOc1ccc(N2C(=O)C(=Nc3ccccc3O)C(Cl)C2=O)cc1 (stereo unspecified) [SMR000124402]
3.11 | COc1ccc2nc(NC(=O)CSc3nnc(N)[nH]3)sc2c1 [MLS001138435]
> 300 | Cc1onc(-c2ccccc2Cl)c1C(=O)NNC(=O)c1ccc(F)cc1 [MLS001223650]
> 300 | CN1CCc2c(sc3c2c(=O)n(-c2ccccc2)c2nncn32)C1 [SMR000045494]
> 300 | CCCn1nc(NC(=O)C2CCCO2)c2cc3cc(C)ccc3nc21 (stereo unspecified) [SMR000148635]
> 300 | Cc1cc(C)c(NC(=O)c2ccc(S(=O)(=O)N3CCOCC3)cc2)c(C)c1 [MLS000100511]
